From PubChem BioAssay (NCI)
“And” between values parts separate entries of the source, which are not always exact repeats. Equal values may be shown once.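 Interpolation was linear, between the two tested concentrations surrounding the appropriate level; five concentrations were tested over 48 hours in 96-well plates. GI50 = concentration required for 50% inhibition of growth. TGI marks complete inhibition of growth.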

What was measured:
Assay in all cases: NCI tumour cell line growth inhibition, 48 h
DMS 114 small cell lung = test system: DMS 114 small cell lung
ACHN renal = test system: ACHN renal
NCI-H226 lung = test system: NCI-H226 lung
SF-295 CNS = test system: SF-295 CNS
UACC-257 melanoma = test system: UACC-257 melanoma
MALME-3M melanoma = test system: MALME-3M melanoma
EKVX NSCLC = test system: EKVX NSCLC
U251 CNS = test system: U251 CNS
IGROV1 ovarian = test system: IGROV1 ovarian
SF-539 CNS = test system: SF-539 CNS
HT29 colon = test system: HT29 colon
CAKI-1 renal = test system: CAKI-1 renal
OVCAR-8 ovarian = test system: OVCAR-8 ovarian
HCT-15 colon = test system: HCT-15 colon
K-562 leukemia = test system: K-562 leukemia
SK-MEL-2 melanoma = test system: SK-MEL-2 melanoma
HOP-62 NSCLC = test system: HOP-62 NSCLC
SK-MEL-5 melanoma = test system: SK-MEL-5 melanoma
MOLT-4 leukemia = test system: MOLT-4 leukemia
RXF-631 renal = test system: RXF-631 renal
SN12C renal = test system: SN12C renal
XF 498 CNS = test system: XF 498 CNS
786-0 renal = test system: 786-0 renal
HCT-116 colon = test system: HCT-116 colon
SF-268 CNS = test system: SF-268 CNS
M14 melanoma = test system: M14 melanoma
KM20L2 colon = test system: KM20L2 colon
NCI-H522 lung = test system: NCI-H522 lung
SNB-75 CNS = test system: SNB-75 CNS
DMS 273 small cell lung = test system: DMS 273 small cell lung
A498 renal = test system: A498 renal
A549 NSCLC = test system: A549 NSCLC
CCRF-CEM leukemia = test system: CCRF-CEM leukemia
UO-31 renal = test system: UO-31 renal
SNB-19 CNS = test system: SNB-19 CNS
OVCAR-4 ovarian = test system: OVCAR-4 ovarian
COLO 205 colon = test system: COLO 205 colon
UACC-62 melanoma = test system: UACC-62 melanoma
NCI-H460 lung = test system: NCI-H460 lung
HCC-2998 colon = test system: HCC-2998 colon
P388/ADR leukemia = test system: P388/ADR leukemia
NCI/ADR-RES ovarian = test system: NCI/ADR-RES ovarian
SK-OV-3 ovarian = test system: SK-OV-3 ovarian
SR leukemia = test system: SR leukemia
LXFL 529 NSCLC = test system: LXFL 529 NSCLC
OVCAR-5 ovarian = test system: OVCAR-5 ovarian
KM12 colon = test system: KM12 colon
MCF7 breast = test system: MCF7 breast
RPMI-8226 leukemia = test system: RPMI-8226 leukemia
SK-MEL-28 melanoma = test system: SK-MEL-28 melanoma
NCI-H23 lung = test system: NCI-H23 lung
SW-620 colon = test system: SW-620 colon
HL-60(TB) leukemia = test system: HL-60(TB) leukemia
HOP-92 NSCLC = test system: HOP-92 NSCLC
LOX IMVI melanoma = test system: LOX IMVI melanoma
HOP-18 NSCLC = test system: HOP-18 NSCLC
DLD-1 colon = test system: DLD-1 colon
RXF 393 renal = test system: RXF 393 renal
TK-10 renal = test system: TK-10 renal
OVCAR-3 ovarian = test system: OVCAR-3 ovarian
SN12K1 renal = test system: SN12K1 renal
M19-MEL melanoma = test system: M19-MEL melanoma
SNB-78 CNS = test system: SNB-78 CNS

With `COc1ccc(/C(=N/Nc2ccccc2)C(c2ccc(OC)cc2)C2OC(=O)c3ccccc32)cc1` (stereo not drawn) the TGI (DMS 114 small cell lung) was greater than 100 µM, the TGI (ACHN renal) was greater than 100 µM and the TGI (NCI-H226 lung) was 65.8 µM. For the same compound, the TGI (SF-295 CNS) was greater than 100 µM, the TGI (UACC-257 melanoma) was greater than 100 µM and the TGI (MALME-3M melanoma) was greater than 100 µM. The TGI (EKVX NSCLC) was greater than 100 µM, the TGI (U251 CNS) was greater than 100 µM and the TGI (IGROV1 ovarian) was greater than 100 µM. It also gave a TGI (SF-539 CNS) greater than 100 µM, a TGI (HT29 colon) greater than 100 µM and a TGI (CAKI-1 renal) greater than 100 µM. It also gave a TGI (OVCAR-8 ovarian) greater than 100 µM, a TGI (HCT-15 colon) greater than 100 µM and a TGI (K-562 leukemia) greater than 100 µM. For the same compound, the TGI (SK-MEL-2 melanoma) was greater than 100 µM, the TGI (HOP-62 NSCLC) was greater than 100 µM and the TGI (SK-MEL-5 melanoma) was greater than 100 µM. It also gave a TGI (MOLT-4 leukemia) greater than 100 µM, a TGI (RXF-631 renal) greater than 100 µM and a TGI (SN12C renal) greater than 100 µM. For the same compound, the TGI (XF 498 CNS) was greater than 100 µM, the TGI (786-0 renal) was greater than 100 µM and the TGI (HCT-116 colon) was greater than 100 µM. It also gave a TGI (SF-268 CNS) of 91.8 µM, a TGI (M14 melanoma) greater than 100 µM and a TGI (KM20L2 colon) greater than 100 µM. For the same compound, the TGI (NCI-H522 lung) was greater than 100 µM, the TGI (SNB-75 CNS) was greater than 100 µM and the TGI (DMS 273 small cell lung) was greater than 100 µM. It also gave a TGI (A498 renal) greater than 100 µM, a TGI (A549 NSCLC) greater than 100 µM and a TGI (CCRF-CEM leukemia) greater than 100 µM. For the same compound, the TGI (UO-31 renal) was greater than 100 µM, the TGI (SNB-19 CNS) was greater than 100 µM and the TGI (OVCAR-4 ovarian) was greater than 100 µM. The TGI (COLO 205 colon) was greater than 100 µM, the TGI (UACC-62 melanoma) was greater than 100 µM and the TGI (NCI-H460 lung) was greater than 100 µM. The TGI (HCC-2998 colon) was greater than 100 µM.
With `NC(=O)C#CC(N)=O` the GI50 (DMS 114 small cell lung) was 24.4 µM and 38.3 µM and > 100 µM, the TGI (DMS 114 small cell lung) was 71.5 µM and 125 µM and > 100 µM and the TGI (ACHN renal) was greater than 100 µM. For the same compound, the GI50 (NCI-H226 lung) was 73.6 µM, the TGI (NCI-H226 lung) was 169 µM and > 100 µM and the TGI (P388/ADR leukemia) was 875 µM. The TGI (SF-295 CNS) was 26.2 µM and > 31.6 µM, the GI50 (UACC-257 melanoma) was 4.46 µM and 13.6 µM and the TGI (UACC-257 melanoma) was 14.2 µM and 19.5 µM. For the same compound, the GI50 (NCI/ADR-RES ovarian) was 8.22 µM, the TGI (NCI/ADR-RES ovarian) was 25.9 µM and 18 µM and the TGI (SK-OV-3 ovarian) was 231 µM and 214 µM and > 100 µM. The TGI (SR leukemia) was 36.3 µM, the GI50 (MALME-3M melanoma) was 5.74 µM and the TGI (MALME-3M melanoma) was 19.7 µM and 18.1 µM. For the same compound, the TGI (LXFL 529 NSCLC) was greater than 100 µM, the GI50 (OVCAR-5 ovarian) was 20.9 µM and > 54 µM and the TGI (OVCAR-5 ovarian) was 38.4 µM and 47.9 µM and > 90.8 µM. The GI50 (EKVX NSCLC) was 16.1 µM and 18.1 µM and > 100 µM, the TGI (EKVX NSCLC) was 29.7 µM and 35 µM and > 100 µM and the GI50 (U251 CNS) was 43 µM and 39.1 µM and > 100 µM. For the same compound, the TGI (U251 CNS) was 152 µM and 132 µM and > 100 µM, the TGI (IGROV1 ovarian) was 213 µM and 189 µM and > 100 µM and the GI50 (KM12 colon) was 38.9 µM and 54.1 µM and > 100 µM. For the same compound, the TGI (KM12 colon) was 164 µM and 161 µM and > 100 µM, the TGI (SF-539 CNS) was 46.3 µM and 68.9 µM and the GI50 (HT29 colon) was 31.2 µM and 17 µM. The TGI (HT29 colon) was 131 µM and 35.4 µM and > 100 µM, the TGI (MCF7 breast) was 48.5 µM and 56.8 µM and the TGI (RPMI-8226 leukemia) was 62.1 µM. For the same compound, the GI50 (CAKI-1 renal) was 2.81 µM and 12.5 µM and 18.2 µM, the TGI (CAKI-1 renal) was 10.3 µM and 24.2 µM and 33.8 µM and the GI50 (OVCAR-8 ovarian) was 8.34 µM and 19.2 µM. For the same compound, the TGI (OVCAR-8 ovarian) was 23.4 µM and 47.5 µM, the GI50 (HCT-15 colon) was 20 µM and 26.2 µM and > 100 µM and the TGI (HCT-15 colon) was 76.2 µM and 100 µM and > 100 µM. For the same compound, the TGI (K-562 leukemia) was 15.1 µM and 96.6 µM and 24.3 µM, the GI50 (SK-MEL-28 melanoma) was 8.21 µM and 5.85 µM and the TGI (SK-MEL-28 melanoma) was 20 µM and 15.6 µM and 27 µM. The TGI (SK-MEL-2 melanoma) was 30.2 µM and 26.4 µM and 42.8 µM, the GI50 (HOP-62 NSCLC) was 57.4 µM and the TGI (HOP-62 NSCLC) was 211 µM and 170 µM and > 100 µM. The GI50 (SK-MEL-5 melanoma) was 15 µM and 54.6 µM, the TGI (SK-MEL-5 melanoma) was 28.2 µM and > 100 µM and the GI50 (MOLT-4 leukemia) was 3.31 µM and 14.2 µM. The TGI (MOLT-4 leukemia) was 18.6 µM and 37.5 µM, the TGI (RXF-631 renal) was greater than 100 µM and the GI50 (NCI-H23 lung) was 46.4 µM. The TGI (NCI-H23 lung) was 238 µM and 207 µM and > 100 µM, the GI50 (SN12C renal) was 14.3 µM and 36.4 µM and the TGI (SN12C renal) was 26.6 µM and > 100 µM. The GI50 (SW-620 colon) was 5.74 µM and 3.1 µM and 15.2 µM, the TGI (SW-620 colon) was 18.2 µM and 12.1 µM and 31.1 µM and the TGI (786-0 renal) was greater than 58 µM. For the same compound, the GI50 (HCT-116 colon) was 15.1 µM and 37.5 µM, the TGI (HCT-116 colon) was 29.5 µM and > 100 µM and the GI50 (HL-60(TB) leukemia) was 1.95 µM. The TGI (HL-60(TB) leukemia) was 4.29 µM and 4.03 µM and 6.3 µM, the TGI (M14 melanoma) was 37.5 µM and the TGI (NCI-H522 lung) was 46.5 µM and 27.7 µM and 55.2 µM. For the same compound, the TGI (HOP-92 NSCLC) was 5.51 µM and 35.7 µM, the TGI (SNB-75 CNS) was 79.8 µM and > 100 µM and the GI50 (DMS 273 small cell lung) was 23.5 µM and 30.5 µM and > 100 µM. For the same compound, the TGI (DMS 273 small cell lung) was 73.1 µM and 106 µM and > 100 µM, the GI50 (A498 renal) was 71 µM and the TGI (A498 renal) was 197 µM and 154 µM and > 100 µM. The TGI (LOX IMVI melanoma) was 80.5 µM and 30.4 µM, the TGI (HOP-18 NSCLC) was 43.5 µM and 33.2 µM and the GI50 (A549 NSCLC) was 49.4 µM. For the same compound, the TGI (A549 NSCLC) was 173 µM and 189 µM and > 100 µM, the GI50 (DLD-1 colon) was 26.5 µM and 22.2 µM and 62.5 µM and the TGI (DLD-1 colon) was 87.5 µM and 68.3 µM and > 100 µM. The GI50 (RXF 393 renal) was 3.62 µM and 10.2 µM and 14.6 µM, the TGI (RXF 393 renal) was 14.6 µM and 22.7 µM and 29.5 µM and the TGI (TK-10 renal) was 36.2 µM. For the same compound, the GI50 (OVCAR-3 ovarian) was 26.5 µM and 22.8 µM and > 100 µM, the TGI (OVCAR-3 ovarian) was 90.2 µM and 66.5 µM and > 100 µM and the TGI (UO-31 renal) was 63.4 µM and > 81.1 µM. The TGI (SNB-19 CNS) was 241 µM and > 100 µM, the GI50 (SN12K1 renal) was 14.8 µM and the TGI (SN12K1 renal) was 27.4 µM and 26.7 µM. For the same compound, the GI50 (OVCAR-4 ovarian) was 30.7 µM and 21.6 µM and > 100 µM, the TGI (OVCAR-4 ovarian) was 87.5 µM and 55 µM and > 100 µM and the GI50 (M19-MEL melanoma) was 11.8 µM and 10.1 µM and 28.6 µM. For the same compound, the TGI (M19-MEL melanoma) was 24.8 µM and 22.4 µM and > 65.8 µM, the GI50 (COLO 205 colon) was 15.4 µM and 15 µM and 73.6 µM and the TGI (COLO 205 colon) was 30.8 µM and 29.8 µM and > 100 µM. For the same compound, the GI50 (SNB-78 CNS) was 22.5 µM and 121 µM, the TGI (SNB-78 CNS) was 72.3 µM and 202 µM and > 100 µM and the TGI (UACC-62 melanoma) was 28.4 µM and 29.5 µM and 43 µM. The GI50 (NCI-H460 lung) was 38.3 µM and 32.8 µM and > 100 µM, the TGI (NCI-H460 lung) was 146 µM and 126 µM and > 100 µM and the TGI (HCC-2998 colon) was 179 µM and > 100 µM.
